Each structure is given as a SMILES string. pKd: −log10 of the molar value.

The target in experiment [1] is T1, Sorcin (Homo sapiens, UniProt P30626).
T1 construct: gene SRI; full-length wild type; immobilized by amine coupling for SPR; homodimer
T1 sequence (P30626 1-198): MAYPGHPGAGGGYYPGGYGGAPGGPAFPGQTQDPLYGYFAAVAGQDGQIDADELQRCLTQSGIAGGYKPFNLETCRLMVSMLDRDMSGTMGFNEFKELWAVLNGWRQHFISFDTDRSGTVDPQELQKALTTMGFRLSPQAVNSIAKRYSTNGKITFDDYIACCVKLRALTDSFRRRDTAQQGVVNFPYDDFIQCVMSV
In words: SPR, immobilized Sorcin, one-site fit. It counts as binding. For orientation: SPR reads the build-up and loss of mass on a sensor chip optically.

The target of experiment [2] is T2, Sorcin calcium-binding domain (SCBD) (Homo sapiens, UniProt P30626).
T2 construct: gene SRI; dimer
T2 sequence (P30626 32-198): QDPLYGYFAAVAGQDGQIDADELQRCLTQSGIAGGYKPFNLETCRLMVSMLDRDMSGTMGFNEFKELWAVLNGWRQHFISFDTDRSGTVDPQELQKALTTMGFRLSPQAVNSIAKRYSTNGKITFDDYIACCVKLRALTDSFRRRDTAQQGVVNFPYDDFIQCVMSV
In words: intrinsic tryptophan/tyrosine fluorescence quenching titration (ex […] nm), two-site fit. Particulars: Tris-HCl 10 mM pH 7.5, 0.5 uM EDTA, 25 C; stronger of two sites; unreliable (KD1 below protein concentration, large errors).

Experiment [3] deals with T1, Sorcin. In words: SPR (OneStep), immobilized Sorcin. In kind it is binding. Conditions: HEPES 20 mM pH 7.4, NaCl 150 mM, 2% DMSO, 25 C; CaCl2 or EDTA not told.

In the case of `[NH2][Pt]([NH2])([Cl])[Cl]` [cisplatin], on Sorcin [1], the pKd – broadly, −log10 of the Kd, conventionally taken in molar units – is 5.77.
On to `COc1cccc2c1C(=O)c1c(O)c3c(c(O)c1C2=O)C[C@@](O)(C(=O)CO)C[C@@H]3O[C@H]1C[C@H](N)[C@H](O)[C@H](C)O1` [doxorubicin], for which the affinity constant in experiment [2] worked out at 1.4 ± 1 nM.
As for `CC(=O)O[C@H]1C(=O)[C@@]2(C)[C@H]([C@H](OC(=O)c3ccccc3)[C@]3(O)C[C@H](OC(=O)[C@H](O)[C@@H](NC(=O)c4ccccc4)c4ccccc4)C(C)=C1C3(C)C)[C@]1(OC(C)=O)CO[C@@H]1C[C@@H]2O` [paclitaxel], the Kd result on Sorcin [3] was “Sorcin is able to bind doxorubicin, paclitaxel and vinblastine, with high affinity”.
As for `CC[C@]1(O)C[C@@H]2CN(CCc3c([nH]c4ccccc34)[C@@](C(=O)OC)(c3cc4c(cc3OC)N(C)[C@H]3[C@@](O)(C(=O)OC)[C@H](OC(C)=O)[C@]5(CC)C=CCN6CC[C@]43[C@@H]65)C2)C1` [vinblastine], the Kd entry on Sorcin [3] is “Sorcin is able to bind doxorubicin, paclitaxel and vinblastine, with high affinity”.

These data come from article PMC5550883, “Binding of doxorubicin to Sorcin impairs cell death and increases drug resistance in cancer cells” (Cell Death & Disease, 2017).
